Data as given in ChEMBL document CHEMBL3596163, “Discovery of imidazo[1,5-a]pyridines and -pyrimidines as potent and selective RORc inverse agonists” (Bioorg Med Chem Lett, 2015).
Values after ≈ are worked out from the molar mass of the structure shown.

Columns and labels:
[1] = Plasma protein binding in human at 5 uM after 4 hrs by equilibrium dialysis method; assay type: ADME, cell-free; conditions: read-out: PPB
[2] = Plasma protein binding in rat at 5 uM after 4 hrs by equilibrium dialysis method; assay type: ADME, cell-free; conditions: read-out: PPB
[3] = Apparent permeability from apical to basolateral side in MDCK cells at 2 uM by LC-MS/MS analysis; assay type: ADME, cell-based, Canis lupus familiaris; conditions: dog
[4] = Apparent permeability from basolateral to apical side in MDCK cells at 2 uM by LC-MS/MS analysis; assay type: ADME, cell-based, Canis lupus familiaris; conditions: dog
[5] = Kinetic aqueous solubility of the compound in PBS buffer at 23 degC after 24 hrs by LC/CLND analysis; assay type: physicochemical; conditions: read-out: Kinetic_solubility
[6] = Plasma clearance in Sprague-Dawley rat at 0.5 mg/kg, iv; assay type: ADME, organism-based
[7] = Volume of distribution in Sprague-Dawley rat at 0.5 mg/kg, iv; assay type: ADME, organism-based; conditions: in vivo
[8] = Cmax in Sprague-Dawley rat at […], po; assay type: ADME, organism-based; design: dose 1.5 mg/kg, route oral; conditions: in vivo
[9] = AUC in Sprague-Dawley rat at […], po; assay type: ADME, organism-based; conditions: in vivo
[10] = Half life in Sprague-Dawley rat at 0.5 mg/kg, iv; assay type: ADME, organism-based; conditions: in vivo
[11] = Oral bioavailability in Sprague-Dawley rat at […]; assay type: ADME, organism-based; conditions: in vivo

For O=C(O)c1ccc(-c2nc(C(=O)c3c(Cl)cccc3C3CC3)n3cccnc23)cc1O, the fraction unbound at 4 h, 5 µM [1] was 0.01, the fraction unbound at 4 h, 5 µM [2] was 0.01 and the Papp A→B at 2 µM [3] was 8 ×10⁻⁶ cm/s. For the same compound, the Papp B→A at 2 µM [4] was 15 ×10⁻⁶ cm/s and the solubility kinetic at 24 h [5] was 45 µM (≈ 19.5 µg/mL).

For O=C(O)c1ccc(-c2nc(C(=O)c3c(Cl)cccc3C(F)(F)F)n3ccccc23)cc1O, the fraction unbound at 4 h, 5 µM [1] was less than 0.01, the fraction unbound at 4 h, 5 µM [2] was less than 0.01 and the Papp A→B at 2 µM [3] was 12 ×10⁻⁶ cm/s. It also gave a Papp B→A at 2 µM [4] of 10 ×10⁻⁶ cm/s, a solubility kinetic at 24 h [5] of 86 µM (≈ 39.6 µg/mL) and a clearance [6] of 130 mL/min/kg. It also gave a Vd [7] of 1.2 L/kg, a Cmax [8] of 70 nM and an AUC [9] of 0.25 µM·h. The half-life [10] was 12 min and the bioavailability [11] was 40%.
